Values of other authors in US8017623B2 (Trinity Laboratories, Inc., priority 2008, dated 2011).
Counter-ions that a name gives are not always drawn. Like-named read-outs stand apart in the source and are kept apart here.

Columns and labels:
[1] = test system: females; settings: for mean plasma bromide concentration at the end of the treatment: females, three menstrual cycles
[2] = rat, normal
[3] = test system: thyroid; settings: rats, normal chloride intake
[4] = test system: thyroid gland; settings: rats fed diets containing 4800 or 19200 ppm; from 3 days, constant over 12 weeks
[5] = test system: healthy volunteers
[6] = test system: rats
[7] = for peak plasma dextromethorphan concentration (mean) / peak plasma dextromethorphan concentrations (range): chronic oral dosing of 120 mg daily, divided doses

SMILES: Br [bromide]
- quantitative analysis of the electroencephalogram (EEG) ([1]; females receiving 9 mg Br/kg/day): only a marginal effect
- serum thyroxine, free thyroxine, triiodothyronine, thyrotropine and thyroxine-binding globulin ([1]; females, 0, 4 and 9 mg Br/kg/day): In none of the three groups were significant changes observed
- mean plasma bromide concentration at the end of the treatment ([1]; 4 mg Br/kg/day): 3.22 mmol/L
- mean plasma bromide concentration at the end of the treatment ([1]; 9 mg Br/kg/day): 7.99 mmol/L
- half-life [2]: 72 h
- NOAEL based on effects on the thyroid [3]: 240 ppm bromide
- NOAEL based on effects on the thyroid ([3]; equivalent dose): 12 mg bromide/kg bw/day

SMILES: [Br-].[Na+] [sodium bromide]
- thyroxine concentrations [4]: significantly decreased
- medical history, physical examination, haematology, clinical chemistry and urine analyses ([5]; 4 or 9 mg Br/kg/day, except for incidental nausea): no changes were observed
- serum thyroxine and triiodothyronine at the end of the study compared to pre-administration values ([5]; females receiving 9 mg Br/kg/day, concentrations remained within normal limits): significant increase
- mean plasma bromide concentration at the end of treatment ([5]; females, 4 mg Br/kg/day oral, three full cycles): 3.05 mmol/L
- mean plasma bromide concentration at the end of treatment ([5]; females, 9 mg Br/kg/day oral, three full cycles): 4.93 mmol/L
- mean plasma bromide concentration at the end of treatment ([5]; males, 4 mg Br/kg/day oral, 12 weeks): 2.14 mmol/L
- mean plasma bromide concentration at the end of treatment ([5]; males, 9 mg Br/kg/day oral, 12 weeks): 4.30 mmol/L
- effect on reproduction ([6]; 1200 ppm): no effects on reproduction were observed
- effect on reproduction ([6]; 4800 ppm): fertility and viability of the offspring were reduced
- effect on reproduction ([6]; 19200 ppm (highest dose level)): complete infertility
- NOAEL based on effects on the thyroid [3]: 300 ppm sodium bromide

SMILES: COc1ccc2c(c1)[C@]13CCCC[C@@H]1[C@H](C2)N(C)CC3 [Dextromethorphan, 3-methoxy-17-methyl-9a, 13a, 14 a-morphinan]
- conjugated dextrorphan excreted ([7]; 24 hour period): up to 30%
- dose excreted unchanged in the urine ([7]; 24 hour period): less than 2.5%
- peak plasma dextromethorphan concentration (mean) ([7]; extensive metabolizers): 2.4 ng/mL
- peak plasma dextromethorphan concentrations (range) ([7]; extensive metabolizers): 0.5 to 5.9 ng/mL
- peak plasma dextromethorphan concentration (mean) ([7]; poor metabolizers): 207 ng/mL
- peak plasma dextromethorphan concentrations (range) ([7]; poor metabolizers): 182 to 231 ng/mL
- peak concentration in serum ([7]; single 20 mg oral dose): 1.8 ng/mL
- time of peak serum concentration ([7]; single 20 mg oral dose): 2.5 h

SMILES: COc1ccc2c(c1)[C@]13CCCC[C@@H]1[C@H](C2)N(C)CC3 [Dextromethorphan Hydrobromide]
- solubility (at 20° C.): 1.5%
- solubility (at 85° C.): 25%
- solubility (below 20° C.): sparingly soluble
